Assay [1] deals with T1, Retinoic acid receptor beta (Homo sapiens, UniProt P10826).
T1 sequence (P10826 whole entry): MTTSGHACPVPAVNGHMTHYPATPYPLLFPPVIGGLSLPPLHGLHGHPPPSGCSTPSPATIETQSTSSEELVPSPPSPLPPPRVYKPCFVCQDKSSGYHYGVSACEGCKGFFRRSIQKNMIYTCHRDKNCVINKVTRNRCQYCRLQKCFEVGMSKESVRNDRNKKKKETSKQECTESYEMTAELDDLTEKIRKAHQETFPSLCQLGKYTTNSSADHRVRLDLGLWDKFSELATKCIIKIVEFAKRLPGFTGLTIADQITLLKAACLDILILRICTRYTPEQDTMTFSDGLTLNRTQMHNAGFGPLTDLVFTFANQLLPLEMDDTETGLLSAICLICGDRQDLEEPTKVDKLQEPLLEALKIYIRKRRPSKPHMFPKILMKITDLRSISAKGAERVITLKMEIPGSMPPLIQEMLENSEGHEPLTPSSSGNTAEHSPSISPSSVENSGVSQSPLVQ
Briefly: Compound was tested for functional activity in CV-1 cells transfected with an expression vector for retinoic acid receptor beta using transactivation assay. The class given is cell-based.

The target of assay [2] is T2, Retinoic acid receptor RXR-beta (Homo sapiens, UniProt P28702).
T2 sequence (P28702 whole entry): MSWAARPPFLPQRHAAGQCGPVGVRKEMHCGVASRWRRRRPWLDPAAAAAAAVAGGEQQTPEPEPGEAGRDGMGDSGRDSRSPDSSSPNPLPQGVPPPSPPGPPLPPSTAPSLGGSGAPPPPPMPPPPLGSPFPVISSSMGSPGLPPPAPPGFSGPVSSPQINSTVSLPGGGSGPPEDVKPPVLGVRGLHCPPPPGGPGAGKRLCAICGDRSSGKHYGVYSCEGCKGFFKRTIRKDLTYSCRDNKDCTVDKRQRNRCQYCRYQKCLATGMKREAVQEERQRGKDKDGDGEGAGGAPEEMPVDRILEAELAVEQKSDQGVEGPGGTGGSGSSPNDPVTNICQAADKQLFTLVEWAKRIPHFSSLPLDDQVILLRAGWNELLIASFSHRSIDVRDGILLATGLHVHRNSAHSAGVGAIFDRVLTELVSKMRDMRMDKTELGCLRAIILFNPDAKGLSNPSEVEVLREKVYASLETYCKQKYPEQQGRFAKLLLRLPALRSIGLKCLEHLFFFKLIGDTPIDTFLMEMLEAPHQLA
As to the kind of experiment: Compound was tested for functional activity in CV-1 cells transfected with an expression vector for retinoid X receptor beta using transactivation assay. The class given is cell-based.

For assay [3], the target named is T2, Retinoic acid receptor RXR-beta. As to the kind of experiment: (§1) Compound was tested for binding affinity against retinoid X receptor using 5 nM of [3H]9-cis-RA as a radioligand in baculovirus expressed receptor.
Assay [4] concerns the target T3, Retinoic acid receptor RXR-gamma (Homo sapiens, UniProt P48443).
T3 sequence (P48443 whole entry): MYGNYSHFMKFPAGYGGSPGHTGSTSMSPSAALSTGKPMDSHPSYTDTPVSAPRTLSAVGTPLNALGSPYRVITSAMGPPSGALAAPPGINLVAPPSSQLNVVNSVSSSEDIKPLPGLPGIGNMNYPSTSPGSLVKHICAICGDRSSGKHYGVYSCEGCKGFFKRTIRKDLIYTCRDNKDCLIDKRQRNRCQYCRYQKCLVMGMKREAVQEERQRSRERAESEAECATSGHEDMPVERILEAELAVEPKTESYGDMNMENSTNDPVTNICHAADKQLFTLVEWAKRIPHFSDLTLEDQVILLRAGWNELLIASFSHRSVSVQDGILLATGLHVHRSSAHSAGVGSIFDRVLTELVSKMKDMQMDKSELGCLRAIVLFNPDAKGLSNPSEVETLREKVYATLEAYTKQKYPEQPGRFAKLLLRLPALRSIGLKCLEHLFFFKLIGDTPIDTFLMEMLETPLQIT
The description is as §1.

Assay [5] concerns the target T4, Retinoic acid receptor RXR-alpha (Homo sapiens, UniProt P19793).
T4 sequence (P19793 whole entry): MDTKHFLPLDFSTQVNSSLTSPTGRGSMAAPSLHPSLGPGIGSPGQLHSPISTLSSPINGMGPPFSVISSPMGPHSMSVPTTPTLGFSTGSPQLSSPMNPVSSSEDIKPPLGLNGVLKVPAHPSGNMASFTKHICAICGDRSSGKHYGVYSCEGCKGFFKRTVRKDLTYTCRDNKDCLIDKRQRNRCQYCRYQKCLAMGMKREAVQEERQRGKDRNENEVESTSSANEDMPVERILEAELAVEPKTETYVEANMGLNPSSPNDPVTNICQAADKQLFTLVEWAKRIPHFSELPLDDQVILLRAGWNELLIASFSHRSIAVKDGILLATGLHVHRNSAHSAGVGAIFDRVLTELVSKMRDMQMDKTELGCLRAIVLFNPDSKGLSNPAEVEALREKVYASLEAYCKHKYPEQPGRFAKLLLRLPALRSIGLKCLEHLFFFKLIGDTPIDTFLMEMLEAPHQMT
Briefly: Compound was tested for functional activity in CV-1 cells transfected with an expression vector for retinoid X receptor alpha using transactivation assay. The class given is cell-based.

In assay [6] the target is T4, Retinoic acid receptor RXR-alpha. Briefly: Compound was tested for binding affinity against retinoid X receptor using 5 nM of [3H]-9-cis-RA as a radioligand in baculovirus expressed receptor.
Assay [7] concerns the target T5, Retinoic acid receptor alpha (Homo sapiens, UniProt P10276).
T5 sequence (P10276 whole entry): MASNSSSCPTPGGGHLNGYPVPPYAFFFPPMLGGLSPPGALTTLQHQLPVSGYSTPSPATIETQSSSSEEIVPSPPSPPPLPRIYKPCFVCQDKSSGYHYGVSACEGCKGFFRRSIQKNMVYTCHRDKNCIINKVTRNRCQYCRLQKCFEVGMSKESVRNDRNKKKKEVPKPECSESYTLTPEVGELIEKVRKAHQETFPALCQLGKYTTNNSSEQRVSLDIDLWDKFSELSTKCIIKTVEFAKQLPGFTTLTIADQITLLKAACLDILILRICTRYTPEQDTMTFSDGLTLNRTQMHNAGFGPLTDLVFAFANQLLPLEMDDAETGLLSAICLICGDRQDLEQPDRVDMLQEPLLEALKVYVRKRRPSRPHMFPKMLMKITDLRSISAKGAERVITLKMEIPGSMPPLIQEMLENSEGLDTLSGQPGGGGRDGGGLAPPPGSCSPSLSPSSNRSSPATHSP
Briefly: (§2) Compound was tested for binding affinity against retinoic acid receptor using 5 nM of [3H]RA as a radioligand in baculovirus expressed receptor.

The target of assay [8] is T1, Retinoic acid receptor beta. The assay is described as §2.
The target in assay [9] is T6, Retinoic acid receptor gamma (Homo sapiens, UniProt P13631).
T6 sequence (P13631 whole entry): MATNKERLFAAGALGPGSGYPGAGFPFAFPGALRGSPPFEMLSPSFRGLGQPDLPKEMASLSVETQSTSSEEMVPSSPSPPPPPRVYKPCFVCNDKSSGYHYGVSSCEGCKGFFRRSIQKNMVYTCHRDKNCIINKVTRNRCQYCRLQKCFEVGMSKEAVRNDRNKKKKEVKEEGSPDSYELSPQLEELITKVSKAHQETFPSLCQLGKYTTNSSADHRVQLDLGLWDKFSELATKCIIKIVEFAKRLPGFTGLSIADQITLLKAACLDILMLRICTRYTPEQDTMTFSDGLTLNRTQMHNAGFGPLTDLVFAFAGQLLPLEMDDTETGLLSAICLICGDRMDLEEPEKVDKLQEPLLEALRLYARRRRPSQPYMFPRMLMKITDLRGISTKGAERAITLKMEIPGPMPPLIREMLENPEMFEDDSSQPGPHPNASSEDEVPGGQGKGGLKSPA
Described as §2.

In assay [10] the target is T5, Retinoic acid receptor alpha. Briefly: Compound was tested for functional activity in CV-1 cells transfected with an expression vector for retinoic acid receptor alpha using transactivation assay. Type of assay: cell-based.
The target in assay [11] is T3, Retinoic acid receptor RXR-gamma. As to the kind of experiment: Compound was tested for functional activity in CV-1 cells transfected with an expression vector for retinoid X receptor gamma using transactivation assay. Type of assay: cell-based.
Assay [12] deals with T6, Retinoic acid receptor gamma. As to the kind of experiment: Compound was tested for functional activity in CV-1 cells transfected with an expression vector for retinoic acid receptor gamma using transactivation assay. Type of assay: cell-based.

The term EC50 denotes the concentration at which the effect is half-maximal. Read a low EC50 as an effect from little substance. Usually Kd stands for the free concentration of one partner at which half of the binding sites on the other are occupied at equilibrium, for simple one-to-one binding.

Where only a bound is given, the exact number is not on record here.

`CC(=CC(=O)O)/C=C/C1CC1(C)c1cc2c(cc1C)C(C)(C)CCC2(C)C` (centres undefined): the half-maximal effective concentration (EC50) in assay [1], in assay [2], in [5], in assay [10], in assay [11] and in assay [12] was greater than 1000 nM each time. Also, the Kd in [3], in [4], in assay [6], in assay [7], in assay [8] and in [9] was greater than 1000 nM throughout.

`CC(/C=C/C1CC1(C)c1cc2c(cc1C)C(C)(C)CCC2(C)C)=C\C(=O)O` (centres undefined): the EC50 in assay [1] is greater than 1000 nM; in assay [2], 100 nM; in assay [5], 130 nM; in [10] it was greater than 1000 nM; in assay [11], 71 nM; in assay [12], greater than 1000 nM. Besides, the Kd is 56 nM in [3]; 42 nM in [4]; 71 nM in assay [6]; greater than 1000 nM in assay [7]; greater than 1000 nM in assay [8]; greater than 1000 nM in assay [9].
